According to patent US20100137449A1, “SUBSTITUTED 1,3-CYCLOPENTADIONE MULTI-TARGET PROTEIN KINASE MODULATORS OF CANCER, ANGIOGENESIS AND THE INFLAMMATORY PATHWAYS ASSOCIATED THEREWITH” (METAPROTEOMICS, LLC, priority 2007, published 2010):

What was measured:
Experiment in all cases: KinaseProfiler Assay
CaMKI(h) = CaMKI(h) (Homo sapiens, UniProt Q14012)
DAPK1(h) = DAPK1(h) (Homo sapiens, UniProt P53355)
EGFR(L858R)(h) = EGFR(L858R)(h) (Homo sapiens, UniProt P00533, L858R)
GSK3β(h) = GSK3β(h) (Homo sapiens, UniProt P49841)
MRCKα(h) = MRCKα(h) (Homo sapiens, UniProt Q5VT25)
NEK11(h) = target: T1, NEK11(h) (Homo sapiens, UniProt Q8NG66)
T1 sequence (Q8NG66 1-645): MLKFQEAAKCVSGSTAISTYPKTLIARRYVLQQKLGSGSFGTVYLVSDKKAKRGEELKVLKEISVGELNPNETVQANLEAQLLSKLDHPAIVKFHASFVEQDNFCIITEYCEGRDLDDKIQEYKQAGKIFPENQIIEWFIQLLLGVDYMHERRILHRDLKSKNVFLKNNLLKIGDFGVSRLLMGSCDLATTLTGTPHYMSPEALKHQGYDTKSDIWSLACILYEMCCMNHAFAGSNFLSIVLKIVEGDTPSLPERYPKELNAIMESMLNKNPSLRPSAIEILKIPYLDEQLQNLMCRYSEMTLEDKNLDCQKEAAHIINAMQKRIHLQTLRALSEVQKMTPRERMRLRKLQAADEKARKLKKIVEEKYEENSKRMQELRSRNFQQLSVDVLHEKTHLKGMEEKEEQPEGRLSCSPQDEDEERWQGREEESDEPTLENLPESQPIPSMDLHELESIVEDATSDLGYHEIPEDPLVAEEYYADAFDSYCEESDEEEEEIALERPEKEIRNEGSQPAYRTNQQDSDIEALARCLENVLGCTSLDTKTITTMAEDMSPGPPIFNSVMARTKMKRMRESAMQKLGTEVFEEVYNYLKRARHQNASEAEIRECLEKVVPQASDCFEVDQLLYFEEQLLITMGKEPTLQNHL

PKBγ(h) = PKBγ(h) (Homo sapiens, UniProt Q9Y243)
PKCα(h) = PKCα(h) (Homo sapiens, UniProt P17252)
SAPK3(h) = target: T2, SAPK3(h) (Homo sapiens, UniProt P53778)
T2 sequence (P53778 1-367): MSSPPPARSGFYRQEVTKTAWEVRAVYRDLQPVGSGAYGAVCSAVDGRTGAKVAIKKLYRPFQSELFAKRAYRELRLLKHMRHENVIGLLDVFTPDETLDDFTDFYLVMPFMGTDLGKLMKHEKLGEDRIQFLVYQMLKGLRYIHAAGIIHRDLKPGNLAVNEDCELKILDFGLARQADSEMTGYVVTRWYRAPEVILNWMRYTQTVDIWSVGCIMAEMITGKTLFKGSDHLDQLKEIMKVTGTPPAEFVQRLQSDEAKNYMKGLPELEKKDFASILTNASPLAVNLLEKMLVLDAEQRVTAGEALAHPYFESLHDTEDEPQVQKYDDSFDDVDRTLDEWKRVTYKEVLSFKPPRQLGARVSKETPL

SGK(h) = target: T3, SGK(h) (Homo sapiens, UniProt O00141)
T3 sequence (O00141 1-431): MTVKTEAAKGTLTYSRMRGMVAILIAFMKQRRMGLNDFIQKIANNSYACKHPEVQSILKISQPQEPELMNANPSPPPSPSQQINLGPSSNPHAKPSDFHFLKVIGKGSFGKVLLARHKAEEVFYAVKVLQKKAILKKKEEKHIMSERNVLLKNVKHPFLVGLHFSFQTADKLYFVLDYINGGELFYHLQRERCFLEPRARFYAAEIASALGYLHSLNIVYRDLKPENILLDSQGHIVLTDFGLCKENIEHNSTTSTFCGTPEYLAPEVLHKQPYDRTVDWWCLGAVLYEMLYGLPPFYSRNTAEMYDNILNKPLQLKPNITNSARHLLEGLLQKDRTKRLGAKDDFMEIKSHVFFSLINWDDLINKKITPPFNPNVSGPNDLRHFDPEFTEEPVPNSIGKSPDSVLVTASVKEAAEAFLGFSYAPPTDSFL

SIK(h) = SIK(h) (Homo sapiens, UniProt P57059)

Sequence of MRCKα(h) (Q5VT25 whole entry): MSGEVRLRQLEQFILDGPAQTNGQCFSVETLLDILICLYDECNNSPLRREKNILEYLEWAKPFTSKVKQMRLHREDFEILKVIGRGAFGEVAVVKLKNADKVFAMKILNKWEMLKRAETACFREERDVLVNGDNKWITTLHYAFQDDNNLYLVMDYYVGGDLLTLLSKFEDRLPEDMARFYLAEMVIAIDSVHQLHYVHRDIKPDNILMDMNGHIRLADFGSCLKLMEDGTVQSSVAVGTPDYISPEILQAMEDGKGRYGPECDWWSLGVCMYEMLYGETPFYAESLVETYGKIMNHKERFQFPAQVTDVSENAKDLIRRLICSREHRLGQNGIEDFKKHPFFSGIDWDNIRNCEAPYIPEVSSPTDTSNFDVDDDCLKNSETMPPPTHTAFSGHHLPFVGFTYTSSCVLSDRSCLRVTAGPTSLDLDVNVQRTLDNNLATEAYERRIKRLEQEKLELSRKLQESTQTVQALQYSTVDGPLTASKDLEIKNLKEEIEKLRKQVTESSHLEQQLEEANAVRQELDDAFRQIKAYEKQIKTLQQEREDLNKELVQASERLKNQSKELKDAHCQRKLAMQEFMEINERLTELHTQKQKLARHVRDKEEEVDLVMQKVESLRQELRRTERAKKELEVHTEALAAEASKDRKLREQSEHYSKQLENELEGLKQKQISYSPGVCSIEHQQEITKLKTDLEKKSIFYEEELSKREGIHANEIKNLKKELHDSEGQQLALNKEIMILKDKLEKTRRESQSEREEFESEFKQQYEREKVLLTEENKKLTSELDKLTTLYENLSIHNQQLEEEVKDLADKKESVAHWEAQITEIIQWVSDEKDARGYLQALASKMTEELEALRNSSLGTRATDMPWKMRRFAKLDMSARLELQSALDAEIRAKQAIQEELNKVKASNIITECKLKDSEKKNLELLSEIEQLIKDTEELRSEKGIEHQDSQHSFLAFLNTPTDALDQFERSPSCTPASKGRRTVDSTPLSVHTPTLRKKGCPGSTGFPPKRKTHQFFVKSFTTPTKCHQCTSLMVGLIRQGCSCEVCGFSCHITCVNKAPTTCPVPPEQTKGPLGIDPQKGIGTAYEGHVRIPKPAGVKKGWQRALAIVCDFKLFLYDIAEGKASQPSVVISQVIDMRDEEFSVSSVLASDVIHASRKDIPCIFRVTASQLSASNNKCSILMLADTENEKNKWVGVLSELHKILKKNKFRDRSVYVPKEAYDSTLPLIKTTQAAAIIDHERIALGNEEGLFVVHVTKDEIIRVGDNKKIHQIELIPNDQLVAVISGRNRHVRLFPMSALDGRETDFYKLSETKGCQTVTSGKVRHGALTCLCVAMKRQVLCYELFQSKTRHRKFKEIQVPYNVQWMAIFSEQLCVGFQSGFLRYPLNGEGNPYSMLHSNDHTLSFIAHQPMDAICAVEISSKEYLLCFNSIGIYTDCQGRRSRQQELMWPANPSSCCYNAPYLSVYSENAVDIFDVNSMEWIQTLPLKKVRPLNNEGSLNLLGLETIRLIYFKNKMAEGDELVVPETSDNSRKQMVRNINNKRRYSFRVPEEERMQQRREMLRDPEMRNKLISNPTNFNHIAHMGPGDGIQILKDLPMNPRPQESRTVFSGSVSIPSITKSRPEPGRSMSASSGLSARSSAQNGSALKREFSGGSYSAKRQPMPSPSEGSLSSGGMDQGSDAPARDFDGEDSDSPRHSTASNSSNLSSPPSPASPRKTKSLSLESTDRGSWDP
Sequence of PKBγ(h) (Q9Y243 whole entry): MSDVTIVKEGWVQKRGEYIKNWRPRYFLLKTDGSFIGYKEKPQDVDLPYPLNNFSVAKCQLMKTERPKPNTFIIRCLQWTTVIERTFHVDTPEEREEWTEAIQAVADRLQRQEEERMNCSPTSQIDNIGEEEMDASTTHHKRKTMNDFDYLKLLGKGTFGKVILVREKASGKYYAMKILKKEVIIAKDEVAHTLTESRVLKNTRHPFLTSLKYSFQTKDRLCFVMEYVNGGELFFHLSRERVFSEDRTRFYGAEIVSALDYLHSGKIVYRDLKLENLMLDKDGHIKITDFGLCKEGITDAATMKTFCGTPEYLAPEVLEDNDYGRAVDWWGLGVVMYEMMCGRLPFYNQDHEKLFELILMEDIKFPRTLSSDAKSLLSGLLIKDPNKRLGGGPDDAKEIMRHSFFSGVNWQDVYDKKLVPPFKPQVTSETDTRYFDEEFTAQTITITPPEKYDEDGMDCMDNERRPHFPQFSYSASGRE
Sequence of CaMKI(h) (Q14012 whole entry): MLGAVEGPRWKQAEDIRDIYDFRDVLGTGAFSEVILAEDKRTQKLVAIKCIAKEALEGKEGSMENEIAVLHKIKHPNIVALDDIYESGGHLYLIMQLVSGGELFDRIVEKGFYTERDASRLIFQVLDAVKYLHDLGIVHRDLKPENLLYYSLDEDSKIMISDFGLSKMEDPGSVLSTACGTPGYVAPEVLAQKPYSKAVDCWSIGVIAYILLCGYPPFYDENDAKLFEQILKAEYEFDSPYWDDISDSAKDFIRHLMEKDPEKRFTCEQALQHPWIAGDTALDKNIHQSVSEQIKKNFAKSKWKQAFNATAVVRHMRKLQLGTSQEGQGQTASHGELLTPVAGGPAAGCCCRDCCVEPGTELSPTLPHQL
Sequence of GSK3β(h) (P49841 whole entry): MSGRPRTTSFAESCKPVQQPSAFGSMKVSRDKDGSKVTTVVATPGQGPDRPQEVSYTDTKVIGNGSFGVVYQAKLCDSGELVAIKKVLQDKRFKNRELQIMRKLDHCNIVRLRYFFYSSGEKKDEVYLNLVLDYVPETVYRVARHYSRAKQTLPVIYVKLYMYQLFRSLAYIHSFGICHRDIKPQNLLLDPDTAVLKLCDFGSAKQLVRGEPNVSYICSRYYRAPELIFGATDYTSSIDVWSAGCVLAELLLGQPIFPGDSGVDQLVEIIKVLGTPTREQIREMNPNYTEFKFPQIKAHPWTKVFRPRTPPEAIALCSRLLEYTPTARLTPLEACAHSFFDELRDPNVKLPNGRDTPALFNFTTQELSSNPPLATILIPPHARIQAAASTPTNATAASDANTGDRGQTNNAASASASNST
Sequence of EGFR(L858R)(h) (P00533 25-1210 L858R): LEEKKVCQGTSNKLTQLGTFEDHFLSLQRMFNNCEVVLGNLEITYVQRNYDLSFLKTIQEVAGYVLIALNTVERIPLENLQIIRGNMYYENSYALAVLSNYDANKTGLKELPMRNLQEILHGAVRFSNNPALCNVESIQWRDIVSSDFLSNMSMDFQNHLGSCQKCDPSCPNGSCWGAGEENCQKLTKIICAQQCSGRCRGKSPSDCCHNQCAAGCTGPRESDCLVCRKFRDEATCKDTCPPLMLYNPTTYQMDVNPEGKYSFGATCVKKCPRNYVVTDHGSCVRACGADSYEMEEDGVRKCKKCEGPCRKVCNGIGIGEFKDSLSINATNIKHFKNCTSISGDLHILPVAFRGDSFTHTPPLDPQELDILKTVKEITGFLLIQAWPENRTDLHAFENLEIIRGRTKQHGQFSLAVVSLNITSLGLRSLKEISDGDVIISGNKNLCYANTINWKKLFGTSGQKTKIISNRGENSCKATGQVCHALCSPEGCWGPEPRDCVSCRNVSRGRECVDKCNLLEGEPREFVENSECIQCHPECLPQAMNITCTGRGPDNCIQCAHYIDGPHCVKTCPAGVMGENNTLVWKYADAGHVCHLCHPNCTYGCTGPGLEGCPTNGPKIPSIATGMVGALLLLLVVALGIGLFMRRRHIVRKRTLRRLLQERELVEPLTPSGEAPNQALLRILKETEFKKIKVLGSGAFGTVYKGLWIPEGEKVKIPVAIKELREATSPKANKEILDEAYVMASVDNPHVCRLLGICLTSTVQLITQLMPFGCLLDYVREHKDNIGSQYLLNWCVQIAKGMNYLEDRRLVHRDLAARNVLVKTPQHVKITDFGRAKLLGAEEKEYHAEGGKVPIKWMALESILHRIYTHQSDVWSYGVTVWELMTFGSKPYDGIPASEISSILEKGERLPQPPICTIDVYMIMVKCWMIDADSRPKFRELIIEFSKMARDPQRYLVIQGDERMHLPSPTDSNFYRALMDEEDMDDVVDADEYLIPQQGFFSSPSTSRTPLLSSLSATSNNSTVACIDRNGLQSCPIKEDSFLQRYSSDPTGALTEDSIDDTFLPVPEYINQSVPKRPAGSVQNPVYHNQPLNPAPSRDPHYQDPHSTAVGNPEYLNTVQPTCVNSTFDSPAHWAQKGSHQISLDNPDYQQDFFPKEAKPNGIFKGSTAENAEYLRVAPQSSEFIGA

## CC(C)CCC(=O)[C@]1(O)C(O)=C(C(=O)C(C)C)C(=O)[C@H]1CCC(C)C [TH2, tetrahydroiso-cohumulone]
CaMKI(h); 1 μg/ml
  kinase inhibition: 96% of control
CaMKI(h); 5 μg/ml
  kinase inhibition: 93% of control
CaMKI(h); 25 μg/ml
  kinase inhibition: 73% of control
CaMKI(h); 50 μg/ml
  kinase inhibition: 48% of control
CaMKI(h); 100 μg/ml
  kinase inhibition: 48% of control
DAPK1(h); 1 μg/ml
  kinase inhibition: 63% of control
DAPK1(h); 5 μg/ml
  kinase inhibition: 40% of control
DAPK1(h); 25 μg/ml
  kinase inhibition: 32% of control
DAPK1(h); 50 μg/ml
  kinase inhibition: 25% of control
DAPK1(h); 100 μg/ml
  kinase inhibition: 19% of control
EGFR(L858R)(h); 1 μg/ml
  kinase inhibition: 109% of control
EGFR(L858R)(h); 5 μg/ml
  kinase inhibition: 117% of control
EGFR(L858R)(h); 25 μg/ml
  kinase inhibition: 104% of control
EGFR(L858R)(h); 50 μg/ml
  kinase inhibition: 90% of control
EGFR(L858R)(h); 100 μg/ml
  kinase inhibition: 70% of control
GSK3β(h); 1 μg/ml
  kinase inhibition: 98% of control
GSK3β(h); 5 μg/ml
  kinase inhibition: 86% of control
GSK3β(h); 25 μg/ml
  kinase inhibition: 55% of control
GSK3β(h); 50 μg/ml
  kinase inhibition: 44% of control
GSK3β(h); 100 μg/ml
  kinase inhibition: 40% of control
MRCKα(h); 1 μg/ml
  kinase inhibition: 100% of control
MRCKα(h); 5 μg/ml
  kinase inhibition: 94% of control
MRCKα(h); 25 μg/ml
  kinase inhibition: 112% of control
MRCKα(h); 50 μg/ml
  kinase inhibition: 102% of control
MRCKα(h); 100 μg/ml
  kinase inhibition: 97% of control
NEK11(h); 1 μg/ml
  kinase inhibition: 97% of control
NEK11(h); 5 μg/ml
  kinase inhibition: 106% of control
NEK11(h); 25 μg/ml
  kinase inhibition: 96% of control
NEK11(h); 50 μg/ml
  kinase inhibition: 75% of control
NEK11(h); 100 μg/ml
  kinase inhibition: 51% of control
PKBγ(h); 1 μg/ml
  kinase inhibition: 112% of control
PKBγ(h); 5 μg/ml
  kinase inhibition: 110% of control
PKBγ(h); 25 μg/ml
  kinase inhibition: 107% of control
PKBγ(h); 50 μg/ml
  kinase inhibition: 97% of control
PKBγ(h); 100 μg/ml
  kinase inhibition: 83% of control
PKCα(h); 1 μg/ml
  kinase inhibition: 103% of control
PKCα(h); 5 μg/ml
  kinase inhibition: 99% of control
PKCα(h); 25 μg/ml
  kinase inhibition: 98% of control
PKCα(h); 50 μg/ml
  kinase inhibition: 98% of control
PKCα(h); 100 μg/ml
  kinase inhibition: 71% of control
SAPK3(h); 1 μg/ml
  kinase inhibition: 109% of control
SAPK3(h); 5 μg/ml
  kinase inhibition: 99% of control
SAPK3(h); 25 μg/ml
  kinase inhibition: 114% of control
SAPK3(h); 50 μg/ml
  kinase inhibition: 122% of control
SAPK3(h); 100 μg/ml
  kinase inhibition: 106% of control
SGK(h); 1 μg/ml
  kinase inhibition: 106% of control
SGK(h); 5 μg/ml
  kinase inhibition: 96% of control
SGK(h); 25 μg/ml
  kinase inhibition: 97% of control
SGK(h); 50 μg/ml
  kinase inhibition: 92% of control
SGK(h); 100 μg/ml
  kinase inhibition: 76% of control
SIK(h); 1 μg/ml
  kinase inhibition: 102% of control
SIK(h); 5 μg/ml
  kinase inhibition: 99% of control
SIK(h); 25 μg/ml
  kinase inhibition: 104% of control
SIK(h); 50 μg/ml
  kinase inhibition: 89% of control
SIK(h); 100 μg/ml
  kinase inhibition: 62% of control
